Measured values published in patent publication US9295673B2, “Combination of mTOR inhibitors and P13-kinase inhibitors, and uses thereof” (Intellikine LLC, priority 2011, dated 2016).
Read-outs that look alike come from different tables or passages of the source.

Tests used:
PC3 = PC3 proliferation (Alamar Blue); assay type: cell-based; conditions: Homo sapiens, PC-3; PC3 cells
Protocol: For instance, an in vitro cellular proliferation assay can be performed to measure the metabolic activity of live cells. The assay is performed in a 96 well microtiter plate using Alamar Blue reduction. […] A compound disclosed herein is diluted in Tumor Cell Media and added in a 10 ul volume. […] A volume of 10 uL of Alamar Blue reagent is added to each well and plates are incubated for 3 hours at 37 C and 5% CO2.

PI3K α = PI3K α (Homo sapiens, UniProt P42336); assay: PI 3-Kinase (human) HTRF assay, PI3K α; conditions: read-out: PI3K α IC50
PI3K δ = PI3K δ (Homo sapiens, UniProt O00329); assay: PI 3-Kinase (human) HTRF assay, PI3K δ; conditions: read-out: PI3K δ IC50
Protocol: (§1) An exemplary system is PI 3-Kinase (human) HTRF™ Assay from Upstate. […] Briefly, the assay is a time resolved FRET assay that indirectly measures PIP3 product formed by the activity of a PI3-K. The kinase reaction is performed in a microtitre plate (e.g., a 384 well microtitre plate). The total reaction volume is approximately 20 ul per well. In the first step, each well receives 2 ul of test compound in 20% dimethylsulphoxide resulting in a 2% DMSO final concentration. […] The plate is sealed and incubated for 15 minutes at room temperature. […] The plate is sealed and incubated for 1 hour at room temperature. The reaction is stopped by adding 5 ul of Stop Solution per well and then 5 ul of Detection Mix is added per well. The plate is sealed, incubated for 1 hour at room temperature, and then read on an appropriate plate reader. Data is analyzed and IC50s are generated using GraphPad Prism 5.

PI3K γ = PI3K γ (Homo sapiens, UniProt P48736); assay: PI 3-Kinase (human) HTRF assay, PI3K γ; conditions: read-out: PI3K γ IC50
PI3K β = PI3K β (Homo sapiens, UniProt P42338); assay: PI 3-Kinase (human) HTRF assay, PI3K β; conditions: read-out: PI3K β IC50
Protocol: as §1

mTOR = molecular target: T1, mTOR (Homo sapiens, UniProt P42345); assay: mTOR kinase inhibition assay (radiometric or LanthaScreen TR-FRET); assay type: biochemical; conditions: read-out: mTORC IC50
T1 construct: purchased Invitrogen
T1 sequence (P42345 1360-2549 limits assumed): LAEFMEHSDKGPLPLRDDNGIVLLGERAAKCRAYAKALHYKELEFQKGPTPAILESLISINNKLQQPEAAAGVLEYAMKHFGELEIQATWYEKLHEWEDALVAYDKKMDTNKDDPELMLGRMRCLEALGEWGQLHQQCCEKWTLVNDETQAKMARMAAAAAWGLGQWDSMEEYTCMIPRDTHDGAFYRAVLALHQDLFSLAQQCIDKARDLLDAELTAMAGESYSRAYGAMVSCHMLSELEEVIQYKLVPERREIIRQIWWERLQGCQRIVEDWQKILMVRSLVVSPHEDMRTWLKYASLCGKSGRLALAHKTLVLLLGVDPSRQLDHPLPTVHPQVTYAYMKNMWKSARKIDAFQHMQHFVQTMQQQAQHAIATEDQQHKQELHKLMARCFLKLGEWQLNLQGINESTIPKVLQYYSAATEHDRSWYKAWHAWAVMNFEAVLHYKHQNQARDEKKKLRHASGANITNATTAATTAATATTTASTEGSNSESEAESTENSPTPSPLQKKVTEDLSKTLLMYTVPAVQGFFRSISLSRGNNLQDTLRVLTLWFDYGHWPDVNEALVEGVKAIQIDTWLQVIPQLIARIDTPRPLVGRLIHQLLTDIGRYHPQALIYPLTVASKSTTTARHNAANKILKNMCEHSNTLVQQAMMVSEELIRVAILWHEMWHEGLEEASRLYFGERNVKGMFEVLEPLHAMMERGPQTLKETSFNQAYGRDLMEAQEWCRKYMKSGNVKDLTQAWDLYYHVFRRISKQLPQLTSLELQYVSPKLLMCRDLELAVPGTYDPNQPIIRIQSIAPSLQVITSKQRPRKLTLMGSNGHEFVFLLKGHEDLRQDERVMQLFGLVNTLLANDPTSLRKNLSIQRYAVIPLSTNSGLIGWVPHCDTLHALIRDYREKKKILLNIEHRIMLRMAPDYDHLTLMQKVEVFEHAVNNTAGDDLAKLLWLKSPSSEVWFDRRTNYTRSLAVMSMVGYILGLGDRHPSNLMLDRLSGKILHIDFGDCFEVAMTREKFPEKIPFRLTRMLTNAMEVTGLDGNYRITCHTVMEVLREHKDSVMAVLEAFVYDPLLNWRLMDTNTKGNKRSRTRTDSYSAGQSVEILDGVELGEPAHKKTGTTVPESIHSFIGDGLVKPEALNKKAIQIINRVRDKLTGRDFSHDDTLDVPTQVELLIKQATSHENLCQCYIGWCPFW
Protocol: The compounds described herein can be tested against recombinant mTOR (Invitrogen) in an assay containing 50 mM HEPES, pH 7.5, 1 mM EGTA, 10 mM MgCl2, 2.5 mM, 0.01% Tween, 10 μM ATP (2.5 μCi of μ-32P-ATP), and 3 mg/mL BSA. Rat recombinant PHAS-1/4EBP1 (Calbiochem; 2 mg/mL) is used as a substrate. Reactions are terminated by spotting onto nitrocellulose, which is washed with 1M NaC1/1% phosphoric acid (approximately 6 times, 5-10 minutes each). Sheets are dried and the transferred radioactivity quantitated by phosphorimaging.
For instance, one can use Invitrogen's LanthaScreen™ Kinase assay to test the inhibitors of mTOR disclosed herein. This assay is a time resolved FRET platform that measures the phosphorylation of GFP labeled 4EBP1 by mTOR kinase. The kinase reaction is performed in a white 384 well microtitre plate. The total reaction volume is 20 ul per well and the reaction buffer composition is 50 mM HEPES pH7.5, 0.01% Polysorbate 20, 1 mM EGTA, 10 mM MnCl2, and 2 mM DTT. In the first step, each well receives 2 ul of test compound in 20% dimethylsulphoxide resulting in a 2% DMSO final concentration. […] The plate is sealed and incubated for 1 hour at room temperature. […] The plate is sealed, incubated for 1 hour at room temperature, and then read on a plate reader set up for LanthaScreen™ TR-FRET. Data is analyzed and IC50s are generated using GraphPad Prism 5.

Sequence of PI3K γ (P48736 whole entry): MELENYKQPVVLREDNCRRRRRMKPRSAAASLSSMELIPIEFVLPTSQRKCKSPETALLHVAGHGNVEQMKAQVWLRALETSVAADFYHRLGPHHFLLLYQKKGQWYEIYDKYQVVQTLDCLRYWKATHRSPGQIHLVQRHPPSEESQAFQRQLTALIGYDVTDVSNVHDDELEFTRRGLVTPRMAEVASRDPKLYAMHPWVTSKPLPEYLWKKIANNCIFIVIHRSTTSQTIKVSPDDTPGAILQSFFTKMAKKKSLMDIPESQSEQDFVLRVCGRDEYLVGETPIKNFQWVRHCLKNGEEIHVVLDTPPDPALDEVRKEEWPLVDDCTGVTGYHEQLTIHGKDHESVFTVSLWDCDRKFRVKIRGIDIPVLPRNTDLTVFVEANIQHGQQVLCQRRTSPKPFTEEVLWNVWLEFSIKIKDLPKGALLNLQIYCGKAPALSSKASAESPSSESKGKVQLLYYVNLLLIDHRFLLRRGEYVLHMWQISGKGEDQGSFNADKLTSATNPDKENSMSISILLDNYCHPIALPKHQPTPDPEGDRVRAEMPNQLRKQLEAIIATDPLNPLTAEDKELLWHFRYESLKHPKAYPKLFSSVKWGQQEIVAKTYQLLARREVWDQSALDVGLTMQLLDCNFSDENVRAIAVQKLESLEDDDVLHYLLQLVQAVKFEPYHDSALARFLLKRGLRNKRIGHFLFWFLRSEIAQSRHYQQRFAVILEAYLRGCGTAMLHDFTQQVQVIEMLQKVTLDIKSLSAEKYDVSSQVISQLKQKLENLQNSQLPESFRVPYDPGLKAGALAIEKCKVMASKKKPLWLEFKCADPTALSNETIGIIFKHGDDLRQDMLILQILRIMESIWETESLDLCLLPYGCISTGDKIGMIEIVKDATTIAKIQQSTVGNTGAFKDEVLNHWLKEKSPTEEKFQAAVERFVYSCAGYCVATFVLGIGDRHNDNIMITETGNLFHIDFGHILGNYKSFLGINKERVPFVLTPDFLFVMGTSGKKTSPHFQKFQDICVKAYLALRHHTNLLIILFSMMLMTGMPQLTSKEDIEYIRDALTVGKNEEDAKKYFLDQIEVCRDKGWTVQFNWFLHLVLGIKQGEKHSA
Sequence of PI3K β (P42338 whole entry): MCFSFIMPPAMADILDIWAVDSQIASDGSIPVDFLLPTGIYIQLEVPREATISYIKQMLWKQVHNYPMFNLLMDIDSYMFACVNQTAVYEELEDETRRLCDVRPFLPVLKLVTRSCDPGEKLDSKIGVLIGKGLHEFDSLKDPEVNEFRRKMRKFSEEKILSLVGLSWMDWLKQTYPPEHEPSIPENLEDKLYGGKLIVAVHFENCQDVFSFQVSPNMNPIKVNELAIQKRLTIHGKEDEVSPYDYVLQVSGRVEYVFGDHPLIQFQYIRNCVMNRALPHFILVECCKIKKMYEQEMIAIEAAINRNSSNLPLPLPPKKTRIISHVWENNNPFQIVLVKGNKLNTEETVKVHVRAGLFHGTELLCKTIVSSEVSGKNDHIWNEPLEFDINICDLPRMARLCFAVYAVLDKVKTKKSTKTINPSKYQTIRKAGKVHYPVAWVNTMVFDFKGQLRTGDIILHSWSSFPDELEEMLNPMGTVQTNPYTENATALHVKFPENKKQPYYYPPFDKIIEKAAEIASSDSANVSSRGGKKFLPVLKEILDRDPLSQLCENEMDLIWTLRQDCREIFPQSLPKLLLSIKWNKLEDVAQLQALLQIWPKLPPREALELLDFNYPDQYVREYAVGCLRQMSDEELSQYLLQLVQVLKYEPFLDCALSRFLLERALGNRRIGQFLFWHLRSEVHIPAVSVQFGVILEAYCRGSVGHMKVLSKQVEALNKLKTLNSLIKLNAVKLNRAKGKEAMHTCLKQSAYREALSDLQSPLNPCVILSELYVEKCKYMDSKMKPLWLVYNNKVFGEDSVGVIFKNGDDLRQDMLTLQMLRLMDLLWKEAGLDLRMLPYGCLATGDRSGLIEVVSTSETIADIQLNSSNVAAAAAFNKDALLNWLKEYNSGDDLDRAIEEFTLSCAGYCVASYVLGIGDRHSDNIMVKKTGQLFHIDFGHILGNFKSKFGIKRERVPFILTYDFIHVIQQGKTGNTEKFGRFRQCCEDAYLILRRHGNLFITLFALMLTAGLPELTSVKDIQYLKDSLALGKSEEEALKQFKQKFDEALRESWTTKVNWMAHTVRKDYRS
Sequence of PI3K β (P27986 whole entry partner): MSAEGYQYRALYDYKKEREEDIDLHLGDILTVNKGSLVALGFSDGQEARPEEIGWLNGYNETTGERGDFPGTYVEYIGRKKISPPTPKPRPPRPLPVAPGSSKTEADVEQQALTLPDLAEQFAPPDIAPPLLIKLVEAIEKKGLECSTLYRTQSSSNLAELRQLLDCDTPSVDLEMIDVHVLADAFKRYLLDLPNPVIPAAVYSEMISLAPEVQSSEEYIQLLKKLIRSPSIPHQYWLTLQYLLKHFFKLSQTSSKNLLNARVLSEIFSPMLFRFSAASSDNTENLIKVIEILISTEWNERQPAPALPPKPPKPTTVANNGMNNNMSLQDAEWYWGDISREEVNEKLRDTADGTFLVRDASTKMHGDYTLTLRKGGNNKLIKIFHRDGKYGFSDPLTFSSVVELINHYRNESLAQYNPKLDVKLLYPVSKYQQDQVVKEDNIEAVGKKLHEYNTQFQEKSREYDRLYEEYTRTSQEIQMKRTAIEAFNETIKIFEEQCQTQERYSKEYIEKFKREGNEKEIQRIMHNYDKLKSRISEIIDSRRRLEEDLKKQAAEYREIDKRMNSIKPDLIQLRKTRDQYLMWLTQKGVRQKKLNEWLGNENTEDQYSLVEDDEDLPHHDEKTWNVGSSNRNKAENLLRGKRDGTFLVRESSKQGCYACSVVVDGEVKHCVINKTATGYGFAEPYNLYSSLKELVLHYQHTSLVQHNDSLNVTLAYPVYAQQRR

| SMILES | IC50 (PC3) [nM] | IC50 (PI3K δ) [nM] | IC50 (PI3K γ; Table 2) [nM] | IC50 (PI3K β; Table 2) [nM] | IC50 (mTOR; Table 2) [nM] | IC50 (PI3K α; Table 2) [nM] | also measured |
| --- | --- | --- | --- | --- | --- | --- | --- |
| CC1(C)CN(C2CN(C(=O)c3cnc4ccc(-c5ccc6oc(N)nc6c5)cn34)C2)CCN1 [Compound 515] | < 1000 | – | – | – | – | – | – |
| COc1cccc2cc(-c3nn(C4CCOCC4)c4ncnc(N)c34)[nH]c12 [Compound 63] | – | 10 to 25 | 10 to 25 | > 500 | < 5 | – | IC50 (PI3K α): 100 to 500 nM |
| COc1ncc(-c2ccc3ncc(C(=O)N4CCOCC4)n3c2)cc1NS(=O)(=O)c1cccnc1 [Compound 462] | < 1000 | – | – | – | – | – | – |
| CO[C@@H]1CCN(C(=O)c2cnc3ccc(-c4ccc5oc(N)nc5c4)cn23)C1 [Compound 464] | < 10000 | – | – | – | – | – | – |
| O=C(c1cnc2ccc(-c3cnc(Cl)c(NS(=O)(=O)c4cccc(F)c4)c3)cn12)N1CCOCC1 [Compound 458] | < 1000 | – | – | – | – | – | – |
| Nc1nc2cc(-c3ccc4ncc(C(=O)N5CC(N6CC[C@H](O)C6)C5)n4c3)ccc2o1 [Compound 469] | < 10000 | – | – | – | – | – | – |
| COc1ccc2cc(-c3nn(C4CCOCC4)c4ncnc(N)c34)[nH]c2c1 [Compound 59] | – | – | > 500 | > 500 | > 500 | > 500 | – |
| Nc1ncnc2c1c(-c1cc3cc(O)cc(Cl)c3[nH]1)nn2C1CCOCC1 [Compound 68] | – | 10 to 25 | 25 to 50 | > 500 | < 5 | 100 to 500 | – |
| CC(C)N1CCC(n2cnc3ccc(-c4cnc(Cl)c(NS(C)(=O)=O)c4)cc3c2=O)CC1 [Compound 523] | < 10000 | – | – | – | – | – | – |
| Nc1ncnc2c1c(-c1cc3cc(O)ccc3[nH]1)nn2C1CC(=O)C1 [Compound 53] | – | – | > 500 | > 500 | < 100 | – | IC50 (PI3K α): > 500 nM |
| Nc1ncnc2c1c(-c1cc3cccc(O)c3[nH]1)nn2C1CCN(C(=O)C2CC2)CC1 [Compound 41] | – | – | – | > 500 | < 10 | > 500 | IC50 (PI3K δ; Table 2): > 500 nM; IC50 (PI3K γ): 25 to 50 nM |
| O=C(c1cnc2ccc(-c3cnc(Cl)c(NS(=O)(=O)c4ccc(F)cc4)c3)cn12)N1CCOCC1 [Compound 457] | < 1000 | – | – | – | – | – | – |
| COc1ncc(-c2ccc3ncn(C4CCN(C)CC4)c(=O)c3c2)cc1NS(=O)(=O)c1ccccc1 [Compound 524] | < 1000 | – | – | – | – | – | – |
| CC(C)N1CCC(n2nc(-c3cc4cc(O)ccc4[nH]3)c3c(N)ncnc32)CC1 [Compound 55] | – | – | > 500 | > 500 | < 500 | > 500 | – |
| CC(=O)N1CCC(n2nc(-c3cc4cc(O)cc(Cl)c4[nH]3)c3c(N)ncnc32)CC1 [Compound 70] | – | – | 50 to 100 | > 500 | < 5 | 100 to 500 | IC50 (PI3K δ; Table 2): 10 to 25 nM |
| CN1CCC(n2cnc3ccc(-c4cnc(Cl)c(NS(C)(=O)=O)c4)cc3c2=O)CC1 [Compound 526] | < 10000 | – | – | – | – | – | – |
| CC(=O)N1CCC(n2nc(-c3cc4ccc(O)cc4[nH]3)c3c(N)ncnc32)CC1 [Compound 65] | – | 10 to 25 | 10 to 25 | > 500 | < 10 | – | IC50 (PI3K α): 25 to 50 nM |
| Nc1nc2cc(-c3ccc4ncc(N5C6CCC5COC6)nc4n3)ccc2o1 [Compound 570] | – | > 10000 | – | – | – | – | IC50 (PI3K α; Table 4): < 100 nM; IC50 (PI3K γ; Table 4): < 100 nM; IC50 (PI3K β; Table 4): > 10000 nM; IC50 (mTOR; Table 4): > 10000 nM |
| CN1CCN(C2CCC(n3nc(-c4cc5cc(O)ccc5[nH]4)c4c(N)ncnc43)CC2)CC1 (centres unmarked) [Compound 58] | – | – | > 500 | > 500 | > 500 | – | IC50 (PI3K α): > 500 nM |
| Nc1ncnc2c1c(-c1cc3cccc(O)c3[nH]1)nn2C1CCOCC1 [Compound 62] | – | – | > 500 | > 500 | < 5 | > 500 | IC50 (PI3K δ; Table 2): 50 to 100 nM |

| SMILES | IC50 (PC3) [nM] | IC50 (PI3K δ) [nM] | IC50 (PI3K γ; Table 2) [nM] | IC50 (PI3K β; Table 2) [nM] | IC50 (mTOR; Table 2) [nM] | IC50 (PI3K α; Table 2) [nM] | also measured |
| --- | --- | --- | --- | --- | --- | --- | --- |
| CC(C)N1CCC(n2nc(-c3cc4cccc(O)c4[nH]3)c3c(N)ncnc32)CC1 [Compound 64] | – | – | 100 to 500 | > 500 | < 25 | > 500 | IC50 (PI3K δ; Table 2): 100 to 500 nM |
| CC(C)N1CCC(n2nc(-c3cc4c(Cl)ccc(O)c4[nH]3)c3c(N)ncnc32)CC1 [Compound 71] | – | > 500 | > 500 | > 500 | < 100 | > 500 | – |
| Nc1nc2cc(-c3ccc4ncc(C(=O)N5CCC(F)(F)C5)n4c3)ccc2o1 [Compound 471] | < 10000 | – | – | – | – | – | – |
| Nc1ncnc2c1c(-c1cc3cccc(Cl)c3[nH]1)nn2C1CCOCC1 [Compound 51] | – | – | 100 to 500 | > 500 | < 50 | – | IC50 (PI3K α): > 500 nM; IC50 (PI3K δ; Table 2): 100 to 500 nM |
| CN1CC2CN(c3cnc4ccc(-c5ccc6oc(N)nc6c5)nc4c3)CC2C1 (centres unmarked) [Compound 630] | – | – | – | – | – | – | IC50 (PI3K α; Table 4): < 100 nM; IC50 (PI3K δ; Table 4): < 1000 nM; IC50 (PI3K γ; Table 4): < 1000 nM; IC50 (PI3K β; Table 4): < 1000 nM; IC50 (mTOR; Table 4): > 10000 nM |
| C[C@H]1CN(C2CN(C(=O)c3cnc4ccc(-c5ccc6oc(N)nc6c5)cn34)C2)CCN1 [Compound 510] | < 10000 | – | – | – | – | – | – |
| O=C(c1cnc2ccc(-c3cnc(Cl)c(NS(=O)(=O)c4ccccc4)c3)cn12)N1CCOCC1 [Compound 451] | < 1000 | – | – | – | – | – | – |
| Nc1ncnc2c1c(-c1cc3cc(O)ccc3[nH]1)nn2C1CC(O)C1 (centres unmarked) [Compound 54] | – | – | > 500 | > 500 | < 25 | > 500 | – |
| CC(=O)Nc1nc2ccc(-c3ccc4oc(N)nc4c3)cc2s1 [Compound 231] | – | < 100 | – | – | – | – | IC50 (PI3K α): < 100 nM; IC50 (PI3K γ): < 100 nM; IC50 (PI3K β): < 1000 nM; IC50 (mTOR): < 10000 nM |
| CC(C)n1nc(-c2cc3cccc(Cl)c3[nH]2)c2c(N)ncnc21 [Compound 50] | – | 100 to 500 | 100 to 500 | > 500 | < 50 | > 500 | – |
| Nc1ncnc2c1c(-c1cc3cc(O)ccc3[nH]1)nn2C1CCC(N2CCOCC2)CC1 (centres unmarked) [Compound 57] | – | – | > 500 | > 500 | < 25 | > 500 | – |
| COc1ccc(Cl)c2cc(-c3nn(C4CCOCC4)c4ncnc(N)c34)[nH]c12 [Compound 61] | – | > 500 | > 500 | > 500 | < 25 | > 500 | – |
| CN1CC2CN(c3cnc4ccc(-c5ccc6oc(N)nc6c5)nc4n3)CC2C1 (centres unmarked) [Compound 629] | – | – | – | – | – | – | IC50 (PI3K α; Table 4): < 100 nM; IC50 (PI3K δ; Table 4): < 1000 nM; IC50 (PI3K γ; Table 4): < 10000 nM; IC50 (PI3K β; Table 4): < 1000 nM; IC50 (mTOR; Table 4): > 10000 nM |
| COc1cc(Cl)c2[nH]c(-c3nn(C4CCOCC4)c4ncnc(N)c34)cc2c1 [Compound 67] | – | – | > 500 | > 500 | > 500 | > 500 | IC50 (PI3K δ; Table 2): > 500 nM |
| Nc1ncnc2c1c(-c1cc3ccc(O)cc3[nH]1)nn2C1CCOCC1 [Compound 60] | – | – | 50 to 100 | > 500 | < 100 | > 500 | – |
| Nc1ncnc2c1c(-c1cc3cc(O)ccc3[nH]1)nn2C1CC(N2CCOCC2)C1 (centres unmarked) [Compound 49] | – | 100 to 500 | 100 to 500 | > 500 | < 10 | – | IC50 (PI3K α): > 500 nM |
| CN1CCN(C2CC(n3nc(-c4cc5cc(O)ccc5[nH]4)c4c(N)ncnc43)C2)CC1 (centres unmarked) [Compound 52] | – | 100 to 500 | – | > 500 | < 500 | – | IC50 (PI3K α): > 500 nM; IC50 (PI3K γ): > 500 nM |
| CC(=O)N1CCC(n2nc(-c3cc4c(Cl)ccc(O)c4[nH]3)c3c(N)ncnc32)CC1 [Compound 69] | – | 100 to 500 | > 500 | > 500 | < 5 | > 500 | – |
| COc1cccc2cc(-c3nn(C4CCN(C(=O)C5CC5)CC4)c4ncnc(N)c34)[nH]c12 [Compound 66] | – | > 500 | > 500 | > 500 | > 500 | > 500 | – |
